Reference: PMC11620517, “Novel hydrazone compounds with broad-spectrum antiplasmodial activity and synergistic interactions with antimalarial drugs” (Antimicrobial Agents and Chemotherapy, 2024)
Read-outs that look alike come from different tables or passages of the source.

Experiments:
human GST = biological target: T1, human GST (Homo sapiens, UniProt P08263); assay: GST inhibition assay (CDNB); assay type: biochemical
T1 construct: The open reading frames encoding PfGST, PbGST, and hGST were gene-synthesized; TEV cleavage site (C); Avitag (C); purchased InterRayBio, LLC; host or cells: E. coli BL21 (DE3)
T1 sequence (P08263 1-222): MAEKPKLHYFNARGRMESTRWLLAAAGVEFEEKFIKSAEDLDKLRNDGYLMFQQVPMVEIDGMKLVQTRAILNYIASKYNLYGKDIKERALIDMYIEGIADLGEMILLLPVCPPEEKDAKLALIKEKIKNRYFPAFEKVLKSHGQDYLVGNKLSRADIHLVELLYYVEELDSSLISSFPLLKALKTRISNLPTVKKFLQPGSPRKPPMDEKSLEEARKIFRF
Description: (§1) Enzymatic activities of recombinant GSTs were determined spectrophotometrically using the chromogenic substrate 1-chloro-2,4-dinitrobenzene (CDNB). Recombinant GST (0.35 mg/mL) was mixed with 1 mM CDNB in 100 mM HEPES. Stock solutions (10 mM) of the CB compounds and hemin were prepared in 100% dimethyl sulfoxide (DMSO) and then diluted at 0.5% DMSO ([14]). Each inhibitor has six concentrations ranging from 1 to 50 µM. The reaction was initiated with 1 mM glutathione (GSH) after 15 minutes. Absorbance change at 340 nm was measured for 1 hour. The slope was converted to micromole per minute using Beer’s equation and the extinction coefficient for the product S-(2,4-dinitrophenyl)glutathione (ε340 nm = 9.6 mM^–1 cm^–1) ([14]). The assay was validated using human placenta GST (#G8642) as a positive control.

[1] = biological target: T2, recombinant P. falciparum GST (Plasmodium falciparum, UniProt Q8ILQ7); assay: GST inhibition assay (CDNB); assay type: biochemical
T2 construct: The open reading frames encoding PfGST, PbGST, and hGST were gene-synthesized; TEV cleavage site (C); Avitag (C); purchased InterRayBio, LLC; host or cells: E. coli BL21 (DE3)
T2 sequence (Q8ILQ7 1-211): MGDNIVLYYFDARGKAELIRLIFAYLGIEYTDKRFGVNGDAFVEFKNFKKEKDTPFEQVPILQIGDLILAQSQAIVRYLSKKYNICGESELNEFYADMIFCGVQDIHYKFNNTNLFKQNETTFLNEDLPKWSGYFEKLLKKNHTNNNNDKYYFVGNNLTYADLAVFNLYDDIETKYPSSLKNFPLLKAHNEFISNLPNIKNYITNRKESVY
Description: as §1

[2] = tested on: recombinant P. berghei GST; assay: GST inhibition assay (CDNB); assay type: biochemical, Plasmodium berghei
Description: as §1

P. falciparum C2B = assay: Malaria SYBR Green I-Based Fluorescence (MSF) assay, blood stages; assay type: cell-based; details: Plasmodium falciparum, 72 h, read-out: IC50 (µM) (±SD) for strain: C2B
Description: (§2) MSF assays were performed in vitro with four P. falciparum strains: D6 (drug sensitive), TM91-C235 (multidrug resistant), W2 (CQ resistant), and C2B (multidrug resistant against ATQ). Parasite strains were kept continuously in long-term cultures as described ([22]). Pre-dosed 384-well plates containing […] serial dilutions of CB compounds (0.0098–20 µM) were prepared using the Tecan Freedom Evo liquid handling system (Tecan USA, Inc., Durham, NC, USA) and were stored at 4°C. A CQ control plate (2,000 ng/mL) was included in each run. Based on modifications of previous methods ([17], [55]), late-ring or early-trophozoite stages were cultured in pre-dosed plates with 0.3% parasitemia and 2% hematocrit. Cultures were incubated for 72 hours at 37°C in a controlled atmosphere of 5% CO2, 5% O2, and 90% N2. Lysis buffer, consisting of 20 mM Tris HCl, 5 mM EDTA, 1.6% Triton X, 0.016% saponin, and SYBR Green I dye at a 20X concentration (Invitrogen #S-7567), was added to the plates for a final 10X SYBR Green concentration. Plates containing cell culture media and lysis buffer were incubated in the dark at 25°C for 24 hours, and the relative fluorescence units (RFU) were measured using the Tecan Genios Plus (Tecan USA, Inc.).

P. falciparum D6 = assay: as above; assay type: cell-based; details: Plasmodium falciparum, D6; blood stages, 72 hours, drug-sensitive strain; read-out: IC50 (µM) (±SD) for strain: D6
Description: as §2

P. falciparum TM91c235 = assay: as above; assay type: cell-based; details: Plasmodium falciparum; blood stages, 72 hours, multidrug resistant strain; read-out: IC50 (µM) (±SD) for strain: TM91c235
Description: as §2

P. falciparum W2 = assay: as above; assay type: cell-based; details: Plasmodium falciparum, W2; blood stages, 72 hours, CQ resistant strain; read-out: IC50 (µM) (±SD) for strain: W2
Description: as §2

[3] = tested on: P. cynomolgi hypnozoites and hepatic schizonts; assay: P. cynomolgi liver-stage inhibition assay; assay type: cell-based, Plasmodium cynomolgi; details: Plasmodium cynomolgi, prophylactic drug treatment mode
Description: (§3) Primary primate hepatocytes were seeded in 384-well plates and used within 2–4 days ([56]). P. cynomolgi B strain parasites were inoculated and developed into hypnozoites and schizonts. CB compounds were tested in 8-point, threefold serial dilutions (100 µM to […]) for both prophylactic (4 days starting with sporozoite addition) and radical cure (4 days starting day 4 post-inoculation) modalities ([56][–][60]). The Operetta CLS imaging system and Harmony Software 4.9 (Perkin Elmer, Waltham, MA, USA) analyzed the plates, and the percentage of inhibition (PI) was calculated in Python using equation (1), where parasitic quantities (hypnozoite and schizont counts) were normalized to the negative control ([57]). Each plate included negative (DMSO) and positive (KDU691, maduramicin, tafenoquine) controls ([58]). IC50 values were determined using an 8-point, threefold dilution format and a Python-adapted grid algorithm for fitting PI to a four-parameter logistic function ([61]).
PI = 100 ∗(1−(xy/Meanneg))

[4] = tested on: primary primate hepatocytes; assay: hepatocyte toxicity in the P. cynomolgi liver-stage assay; assay type: cell-based
Description: as §3

[5] = tested on: P. berghei ookinete development (Ookluc parasites); assay: P. berghei ookinete luciferase inhibition assay; assay type: cell-based, Plasmodium berghei; details: dose–response 2.5–75 µM
Description: Mice were pretreated with phenylhydrazine [6 mg/mL, intraperitoneal injection (IP)] 3 days before intravenous injection (IV) infection with P. berghei Ookluc parasites ([19], [62]). Once parasitemia exceeded 15%, the mice received PYR (1 mg/mL, IP) ([19], [62]). Twenty-four hours after PYR treatment, infected mice were assessed for at least 10 exflagellations before blood was collected by heart puncture ([19], [62]). Infected blood (1:20 dilution) was incubated with 8-point serial dilutions (2.5–75 µM) of CB compounds for 24 hours at 19°C with gentle shaking ([62], [64]). Relative luminescence units (RLU) of mature ookinetes were measured using the Promega Nano-Glo Luciferase Assay System Kit and a SpectraMax M3 Microplate Reader (Molecular Devices, San Jose, CA, USA) after 3 minutes. Giemsa blood smears confirmed ookinetes.

in vitro = details: human, HepG2 cells
[6] = tested on: P. berghei blood-stage parasites; assay: P. berghei blood-stage isobolograms; assay type: cell-based, Plasmodium berghei; details: LUM in combination with DHA (positive control)
Description: Antimalarial activity and IC50 values of CB-61 and five antimalarial drugs were assessed using the previously described in vitro drug luminescence assay ([14], [68]). Blood-stage isobolograms were performed to confirm synergistic combinations between CB-61 and the five drugs, following established protocols ([69]). Thirty-two-fold IC50 concentrations were used to obtain six concentration ranges for each drug combination, and then they were serially diluted five times ([67]). IC50 scores for each drug alone were determined, and FIC50 values (FIC50 = […]) were calculated and plotted ([70], [71]). The Promega Luciferase Assay System Kit was used to measure mature schizonts’ RLUs, and Giemsa blood smears confirmed the presence of schizonts ([14]).

[7] = tested on: P. berghei male gamete activation; assay: Exflagellation assay (male gametocyte activation); assay type: cell-based, Plasmodium berghei; details: 125 nM, positive control
Description: Exflagellation assays were performed to assess the effect of CB compounds on P. berghei male gametocyte activation ([19]). Tail blood from PYR-administered mice was mixed with DMSO, aphidicolin (125 nM), or CB compounds (10 µM) in complete ookinete medium and heparin (30 µg/mL) ([19]). After a 15-minute incubation, the sample was diluted in complete ookinete medium with 10 µM inhibitor and adjusted to a final blood concentration of 1:20. Exflagellations were quantified by counting all events in the middle squares of a hemocytometer. The effect of CB compounds on macrogamete formation was analyzed by flow cytometry using the anti-Pbs21 antibody ([65]). Following PYR administration, infected blood for cardiac puncture was cultured with CB compounds (10 µM) for 2 hours to stimulate gametocyte activation ([66]). Aliquots were then incubated with anti-Pbs21 antibody (1:500) for 1 hour, followed by anti-mouse IgG conjugated Alexa Fluor 594 (1:1,000) for another hour ([65]). Samples were centrifuged (3,000 × g for 3 minutes), pellets were resuspended in phosphate-buffered saline (PBS) and analyzed by flow cytometry (FACSCelesta, FACS Diva Software, BD Biosciences, San Jose, CA, USA) with 1 million events counted per experiment ([66]).

[8] = recombinant GST 0.35 mg/mL, 1–50 µM

## O=C(Nc1cc(Cl)ccc1O)c1cc2nc(-c3ccccc3)cc(-c3ccccc3)n2n1 [CB-59]
Human GST; 6-point 1–50 µM
  GST inhibition: did not inhibit
[1]; 6-point 1–50 µM
  GST inhibition: did not inhibit
[2]; 6-point 1–50 µM
  GST inhibition: did not inhibit
P. falciparum C2B
  IC50: 2.91 µM
P. falciparum D6
  IC50: 1.73 µM
P. falciparum TM91c235
  IC50: 2.96 µM
P. falciparum W2
  IC50: 0.69 µM
[3]; read-out: Hypnozoite IC50
  IC50: > 10000 nM
[3]; read-out: Schizont IC50
  IC50: > 10000 nM
[3]; read-out: Total parasite IC50
  IC50: > 10000 nM
[4]
  Toxicity: >10 µM
[5]
  activity in ookinete formation: no activity
In vitro
  IC50 at 48 h: > 20000 nM

## CCCCN(CCCC)CC(O)c1cc(Cl)cc2c1-c1ccc(Cl)cc1/C2=C/c1ccc(Cl)cc1 (stereo not drawn) [LUM, lumefantrine, reference compound]
[6]
  Mean ΣFIC50: 0.74

## C[C@@]1(CO)[C@H](O)CC[C@@]2(C)[C@H]1CC[C@H]1C[C@@H]3C[C@@]12CC[C@]3(O)CO [aphidicolin]
[7]
  number of exflagellation events: < 50%

## Hemin [reference compound]
Human GST; [8]
  IC50: < 1000 nM
[1]; [8]
  IC50: 1600 nM
[2]; [8]
  IC50: 16100 nM
